Measured values from US8907153B2, “Adhesive peel-forming formulations for dermal delivery of drugs and methods of using the same” (Nuvo Research Inc., priority 2004, dated 2014).
Read-outs that look alike come from different tables or passages of the source.

Details: hairless mouse skin, 35° C., mean and SD of three

CCCN1CCCC[C@H]1C(=O)Nc1c(C)cccc1C [Ropivacaine]
Average flux (steady-state flux of ropivacaine) (saturated in Glycerin): 1.2 ± 0.7 mcg/cm^2/h | Average flux (steady-state flux of ropivacaine) (saturated in ISA (isostearic acid)): 11 ± 2 mcg/cm^2/h | Average flux (steady-state flux of ropivacaine) (saturated in Mineral Oil): 8.9 ± 0.6 mcg/cm^2/h | Average flux (steady-state flux of ropivacaine) (saturated in Span 20): 26 ± 8 mcg/cm^2/h | Average flux (steady-state flux of ropivacaine) (saturated in Tween 20): 2.4 ± 0.1 mcg/cm^2/h
